According to EP1790337A2, “Methods and compounds for treating depression and other disorders” (priority 1998, dated 2000):
Structures can show the parent of a compound that is named as a salt.

Key:
[1] = molecular target: norepinephrine transporter site (Rattus norvegicus, UniProt Q63380); assay: Norepinephrine reuptake inhibition assay ([3H]nisoxetine binding, forebrain membranes); conditions: read-out: NE Uptake, mean % inhibition
Experimental: (§1) Monoamine transporter binding assays (reuptake inhibition assays) were performed by NovaScreen using standard radioligand binding assays. The transporter binding assays are described briefly below:
(§2) Reactions were terminated by rapid vacuum filtration onto glass fiber filters.

[2] = molecular target: dopamine transporter site (Cavia porcellus, UniProt H0WCX4); assay: Dopamine reuptake inhibition assay ([3H]WIN 35428 binding, striatal membranes); parameters: species or system Guinea pig; conditions: read-out: DA Uptake, mean % inhibition; for inhibition at 0.1 µM: @ 100 nM (top number); for inhibition at 10 µM: @ 10.0 µM (bottom number)
dopamine transporter site, sequence (H0WCX4 1-619): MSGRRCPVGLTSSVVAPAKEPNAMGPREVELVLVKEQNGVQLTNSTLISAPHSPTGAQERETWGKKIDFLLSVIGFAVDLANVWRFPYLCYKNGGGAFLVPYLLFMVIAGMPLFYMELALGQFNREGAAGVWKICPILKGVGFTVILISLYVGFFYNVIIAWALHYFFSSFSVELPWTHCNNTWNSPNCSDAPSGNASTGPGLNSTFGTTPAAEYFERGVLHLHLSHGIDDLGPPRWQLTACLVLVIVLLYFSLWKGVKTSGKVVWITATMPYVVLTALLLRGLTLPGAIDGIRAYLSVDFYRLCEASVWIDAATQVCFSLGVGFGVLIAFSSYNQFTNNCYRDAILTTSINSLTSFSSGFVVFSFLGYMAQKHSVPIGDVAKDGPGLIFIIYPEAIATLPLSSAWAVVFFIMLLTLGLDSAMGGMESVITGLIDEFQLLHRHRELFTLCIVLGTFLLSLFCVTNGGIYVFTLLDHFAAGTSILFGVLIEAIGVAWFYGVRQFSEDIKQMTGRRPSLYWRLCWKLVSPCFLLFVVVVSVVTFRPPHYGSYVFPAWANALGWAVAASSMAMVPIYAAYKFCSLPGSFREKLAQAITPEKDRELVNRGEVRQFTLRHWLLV
Experimental: as §1, §2

NMDA receptor [3] = assay: NMDA assay: fura-2 measurement of cytosolic calcium in cultured rat cerebellar granule cells; format: cell-based
Experimental: All culture media, antibiotics, and enzymes, with the exception of fetal calf serum (Hyclone Laboratories, Logan, UT), were purchased from Sigma Chemical Co., St. Louis, MO. Fura-2/AM was obtained from Molecular Probes, Eugene, OR, and was prepared freshly in dimethylsulfoxide (DMSO) before use. Ionomycin (Calbiochem) was stored as a stock solution in DMSO. Nifedipine (Sigma) and nimodipine (RBI) were dissolved in absolute ethanol. […] All other agents were dissolved in phosphate-buffered saline (PBS), and adjusted to pH 7.4
Briefly, primary cultures of cerebellar granule neurons were obtained from 8-day-old rats and plated onto squares of Aclar plastic coated with poly-L-lyaine. The plastic squares were placed in 12-well culture plates, and ~7.5 x 10^5 cells were added to each well. […] No changes of culture medium were made until the cells were used for fluorescence recording 6-8 days after plating.
The cells were then rinsed with the same buffer, lacking fura-2/AM, and maintained at room temperature until used for measurement of fluorescence, the Aclar squares were transferred into quartz cuvettes containing 2 ml of the HEPES buffer. […] Fluorescence was measured using excitation and emission wavelengths of 340 and 510 nm, respectively.

NMDA receptor [4] = assay: [3H]MK-801 binding assay, synaptic plasma membranes from rat cortex; conditions: read-out: [^3H]MK-801 data IC50
Experimental: Synaptic plasma membranes (SPMs) from rat cortex were prepared as follows. […] The cortices from 25 rats were thawed and pooled. […] The extensive washing procedure utilized in this assay was designed to minimize the concentrations of glutamate and glycine (co-agonists at the NMDA receptor-ionophore complex) present in the membrane preparation.
On the day of assay, aliquots of SPM were thawed and resuspended in 75 vols of 5 mM K-EDTA, pH 7.0.
The SPM pellet was resuspended in assay buffer (30 mM EPPS, 1 mM K-EDTA, pH 7.0) by polytron. […] Binding was started by the addition of the tissue homogenate. The assay was terminated by the addition of 4 ml ice-cold buffer, followed by filtration over glass-fiber filters (Schleicher & Schuell No. 30) on a Millipore 12-well filtration manifold. […] Radioactivity on the filters was measured using Fisherbrand Scinti-Safe scintillation cocktail. Samples were shaken for 45-60 min on a shaker platform to solubilize the radioactivity. Counting for ^3H was performed in a Beckman 6000IC LS Scintillation Counter for 4 min per sample.

norepinephrine transporter site, sequence (Q63380 1-617): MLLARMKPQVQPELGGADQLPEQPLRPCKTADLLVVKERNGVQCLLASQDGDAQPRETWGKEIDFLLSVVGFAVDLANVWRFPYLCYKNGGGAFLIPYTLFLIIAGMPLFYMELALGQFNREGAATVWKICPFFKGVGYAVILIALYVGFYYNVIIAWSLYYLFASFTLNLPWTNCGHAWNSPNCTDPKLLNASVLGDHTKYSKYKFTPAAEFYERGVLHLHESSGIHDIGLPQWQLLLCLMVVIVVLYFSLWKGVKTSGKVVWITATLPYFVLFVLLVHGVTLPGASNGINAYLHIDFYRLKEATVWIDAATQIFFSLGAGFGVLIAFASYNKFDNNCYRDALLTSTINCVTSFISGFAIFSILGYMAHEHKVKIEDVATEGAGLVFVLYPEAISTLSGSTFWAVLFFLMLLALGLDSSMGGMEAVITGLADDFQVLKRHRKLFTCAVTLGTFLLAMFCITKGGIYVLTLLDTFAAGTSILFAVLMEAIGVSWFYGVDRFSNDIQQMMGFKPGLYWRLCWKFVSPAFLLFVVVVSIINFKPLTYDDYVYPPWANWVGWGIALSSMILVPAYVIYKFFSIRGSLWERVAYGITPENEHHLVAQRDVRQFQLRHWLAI

SMILES	inhibition at 0.1 µM [1] [%]	inhibition at 10 µM [1] [%]	inhibition at 0.1 µM [2] [%]	inhibition at 10 µM [2] [%]	IC50 (NMDA receptor [3]; read-out: fura2 data IC50, fura-2 [Ca2+]i) [µM]	IC50 (NMDA receptor [4]) [µM]	IC50 (NMDA receptor [3]; fura-2 [Ca2+]i, read-out: fura2 data IC50) [µM]
Fc1ccc([C@@H]2CCNC[C@H]2COc2ccc3c(c2)OCO3)cc1 [Paroxetine, reference compound]	< 20	50	< 20	97			
CNCCC(Oc1ccc(C(F)(F)F)cc1)c1ccccc1 (stereo not drawn) [Fluoxetine]				78			
NCCC(Oc1cccc(F)c1)c1cccc(F)c1 (stereo not drawn) [Compound 119, 3-(3-Fluorophenoxy)-3-(3-fluorophenyl)-1-propylamine]	8.9	19.4	1.9	58.3	0.115	0.087	
NCCC1c2ccccc2CCc2ccccc21 [Compound 156, 5-(2-Aminoethyl)-5H-10, 11-dihydrodibenzo [a,d] cycloheptene hydrochloride]							0.069
